Key:
[1] = test system: MDA-MB-435; test: cells; type: cell-based
[2] = test system: LOX IMIV; test: cells; type: cell-based
[3] = test system: OVCAR-4; test: cells; type: cell-based
[4] = test system: K-562; test: cells; type: cell-based
[5] = test system: UACC-62; test: cells; type: cell-based
[6] = test system: SK-MEL-5; test: cells; type: cell-based
[7] = test system: RPMI-8226; test: cells; type: cell-based
[8] = test system: SNB-75; test: cells; type: cell-based
[9] = test system: SK-MEL-2; test: cells; type: cell-based
[10] = test system: NCI-H460; test: cells; type: cell-based
[11] = test system: NCI-H522; test: cells; type: cell-based
[12] = test system: PC-3; test: cells; type: cell-based
[13] = test system: HCC-2998; test: cells; type: cell-based
[14] = test system: IGROV1; test: cells; type: cell-based
[15] = test system: OVCAR-5; test: cells; type: cell-based
[16] = test system: SK-MEL-28; test: cells; type: cell-based
[17] = test system: UO-31; test: cells; type: cell-based
[18] = test system: EKVX; test: cells; type: cell-based
[19] = test system: SK-OV-3; test: cells; type: cell-based
[20] = test system: NCI/ADR-RES; test: cells; type: cell-based
[21] = test system: OVCAR-3; test: NCI 60 cell line antiproliferative screening (SRB), Ovarian cancer
[22] = test system: T-47D; test: cells; type: cell-based
[23] = test system: ACHN; test: cells; type: cell-based
[24] = Homo sapiens, read-out: growth inhibition % (GI%)
[25] = Homo sapiens, 5 doses, read-out: LC50 (the source's name)

**Q.** Which results are given for `O=C(CSc1nc2ccccc2c(=O)n1-c1ccc(Cl)cc1)NN=Cc1ccc(Oc2ccc(Cl)cc2)cc1` [6d, N'-(4–(4-chlorophenoxy)benzylidene)-2-((3–(4-chlorophenyl)-4-oxo-3,4-dihydroquinazolin-2-yl)thio)acetohydrazide]?
**A.** GI50 ([1]; Homo sapiens, MDA-MB-435): 1.93 µM; inhibition at 10 µM ([1]; Homo sapiens, MDA-MB-435, read-out: growth inhibition % (GI%)): 75%; CC50 ([1]; Homo sapiens, MDA-MB-435, 5 doses, read-out: LC50 (the source's name)): 13 µM; TGI ([1]; MDA-MB-435, 5 doses): 4.56 µM; inhibition at 10 µM ([2]; Homo sapiens, 60 cell, read-out: growth inhibition % (GI%)): > 100%; GI50 ([2]; Homo sapiens, LOX IMVI): 1.29 µM; CC50 ([2]; Homo sapiens, LOX IMVI, 5 doses, read-out: LC50 (the source's name)): 5.2 µM; TGI ([2]; LOX IMVI, 5 doses): 2.59 µM; GI50 ([3]; Homo sapiens, OVCAR-4): 1.89 µM; inhibition at 10 µM ([3]; Homo sapiens, OVCAR-4, read-out: growth inhibition % (GI%)): 98.3%; CC50 ([3]; Homo sapiens, OVCAR-4, 5 doses, read-out: LC50 (the source's name)): 17.5 µM; TGI ([3]; OVCAR-4, 5 doses): 4.57 µM; GI50 ([4]; Homo sapiens, K562): 4.15 µM; inhibition at 10 µM ([4]; Homo sapiens, K562, read-out: growth inhibition % (GI%)): 77%; CC50 ([4]; Homo sapiens, K562, K-562, 5 doses, read-out: LC50 (the source's name)): > 100 µM; TGI ([4]; K-562, 5 doses): 20.2 µM; GI50 ([5]; Homo sapiens, UACC-62): 1.59 µM; inhibition at 10 µM ([5]; Homo sapiens, UACC-62, read-out: growth inhibition % (GI%)): 99.6%; CC50 ([5]; Homo sapiens, UACC-62, 5 doses, read-out: LC50 (the source's name)): 6.38 µM; TGI ([5]; UACC-62, 5 doses): 3.18 µM; GI50 ([6]; Homo sapiens, SK-MEL-5): 1.75 µM; inhibition at 10 µM ([6]; Homo sapiens, SK-MEL-5, read-out: growth inhibition % (GI%)): 89.1%; CC50 ([6]; Homo sapiens, SK-MEL-5, 5 doses, read-out: LC50 (the source's name)): 7.07 µM; TGI ([6]; SK-MEL-5, 5 doses): 3.51 µM; GI50 ([7]; Homo sapiens, RPMI-8226): 2.98 µM; inhibition at 10 µM ([7]; Homo sapiens, RPMI-8226, read-out: growth inhibition % (GI%)): 75.3%; CC50 ([7]; Homo sapiens, RPMI-8226, 5 doses, read-out: LC50 (the source's name)): > 100 µM; TGI ([7]; RPMI-8226, 5 doses): 15.8 µM; GI50 ([8]; Homo sapiens, SNB-75): 3.99 µM; inhibition at 10 µM ([8]; Homo sapiens, SNB-75, read-out: growth inhibition % (GI%)): 42.1%; CC50 ([8]; Homo sapiens, SNB-75, 5 doses, read-out: LC50 (the source's name)): > 100 µM; TGI ([8]; SNB-75, 5 doses): 29.2 µM; GI50 ([9]; Homo sapiens): 2.86 µM; inhibition at 10 µM ([9]; Homo sapiens, SK-MEL-2, read-out: growth inhibition % (GI%)): 45.7%; CC50 ([9]; Homo sapiens, SK-MEL-2, 5 doses, read-out: LC50 (the source's name)): 41.3 µM; TGI ([9]; SK-MEL-2, 5 doses): 8.93 µM; GI50 ([10]; Homo sapiens, NCI-H460): 0.789 µM; inhibition at 10 µM ([10]; Homo sapiens, NCI-H460, read-out: growth inhibition % (GI%)): > 100%; LC50 (concentration killing 50% of cells) ([10]; Homo sapiens, NCI-H460, 5 doses): 7.78 µM; TGI ([10]; NCI-H460, 5 doses): 2.6 µM; GI50 ([11]; Homo sapiens, NCI-H522): 2.34 µM; inhibition at 10 µM ([11]; Homo sapiens, NCI-H522, read-out: growth inhibition % (GI%)): 79.3%; CC50 ([11]; Homo sapiens, NCI-H522, 5 doses, read-out: LC50 (the source's name)): 42.6 µM; TGI ([11]; NCI-H522, 5 doses): 8.31 µM; GI50 ([12]; Homo sapiens, PC-3): 2.58 µM; inhibition at 10 µM ([12]; Homo sapiens, PC-3, read-out: growth inhibition % (GI%)): 99.2%; CC50 ([12]; Homo sapiens, PC-3, 5 doses, read-out: LC50 (the source's name)): > 100 µM; TGI ([12]; PC-3, 5 doses): 9.32 µM; TGI ([13]; HCC-2998, 5 doses): 3.81 µM; GI50 ([13]; Homo sapiens, HCC 2998): 1.92 µM; inhibition at 10 µM ([13]; Homo sapiens, HCC 2998, read-out: growth inhibition % (GI%)): 79.7%; LC50 (lethal concentration 50%) ([13]; Homo sapiens, HCC-2998, 5 doses): 7.57 µM; GI50 ([14]; Homo sapiens, IGROV-1): 1.51 µM; inhibition at 10 µM ([14]; Homo sapiens, IGROV-1, read-out: growth inhibition % (GI%)): 79.4%; CC50 ([14]; Homo sapiens, IGROV-1, IGROV1, 5 doses, read-out: LC50 (the source's name)): 7.12 µM; TGI ([14]; IGROV1, 5 doses): 3.28 µM; GI50 ([15]; Homo sapiens, OVCAR-5): 2.27 µM; inhibition at 10 µM ([15]; Homo sapiens, OVCAR-5, read-out: growth inhibition % (GI%)): 29.4%; CC50 ([15]; Homo sapiens, OVCAR-5, 5 doses, read-out: LC50 (the source's name)): 32.2 µM; TGI ([15]; OVCAR-5, 5 doses): 6.44 µM; GI50 ([16]; Homo sapiens, SK-MEL-28): 1.51 µM; inhibition at 10 µM ([16]; Homo sapiens, SK-MEL-28, read-out: growth inhibition % (GI%)): 96.8%; CC50 ([16]; Homo sapiens, SK-MEL-28, 5 doses, read-out: LC50 (the source's name)): 6.01 µM; TGI ([16]; SK-MEL-28, 5 doses): 3.01 µM; GI50 ([17]; Homo sapiens, UO-31): 7.47 µM; inhibition at 10 µM ([17]; Homo sapiens, UO-31, read-out: growth inhibition % (GI%)): < 15%; CC50 ([17]; Homo sapiens, UO-31, 5 doses, read-out: LC50 (the source's name)): 47.1 µM; TGI ([17]; UO-31, 5 doses): 21.1 µM; TGI ([18]; 5 doses): 13.9 µM; GI50 ([18]; Homo sapiens): 3.1 µM; LC50 ([18]; Homo sapiens, 5 doses): 63.6 µM; inhibition at 10 µM [18, 24]: 59.2%; GI50 ([19]; Homo sapiens, SK-OV-3): 3.26 µM; inhibition at 10 µM ([19]; Homo sapiens, SK-OV-3, read-out: growth inhibition % (GI%)): 66.2%; CC50 ([19]; Homo sapiens, SK-OV-3, 5 doses, read-out: LC50 (the source's name)): 49.4 µM; TGI ([19]; SK-OV-3, 5 doses): 11.9 µM; TGI ([20]; 5 doses): 3.56 µM; GI50 ([20]; Homo sapiens): 1.64 µM; CC50 [20, 25]: 7.76 µM; inhibition at 10 µM [20, 24]: 84.3%; GI50 ([21]; Homo sapiens, OVCAR-3): 2.75 µM; CC50 ([21]; Homo sapiens, OVCAR-3, read-out: LC50): 38.9 µM; inhibition at 10 µM ([21]; Homo sapiens, OVCAR-3, read-out: growth inhibition % (GI%)): < 15%; TGI ([21]; OVCAR-3, 5 doses): 9.55 µM; GI50 ([22]; Homo sapiens, T47D): 2.09 µM; inhibition at 10 µM ([22]; Homo sapiens, T47D, read-out: growth inhibition % (GI%)): 69.9%; CC50 ([22]; Homo sapiens, T47D, T-47D, 5 doses, read-out: LC50 (the source's name)): 49.5 µM; TGI ([22]; T-47D, 5 doses): 5.76 µM; TGI ([23]; 5 doses): 15.2 µM; GI50 ([23]; Homo sapiens): 4.36 µM; CC50 [23, 25]: 39 µM; inhibition at 10 µM [23, 24]: 36.5%

— publication PMC9518264, “Design and synthesis of novel quinazolinone-based derivatives as EGFR inhibitors with antitumor activity” (Journal of Enzyme Inhibition and Medicinal Chemistry, 2022)
